The values below are quoted from earlier work in patent US20140088140A1 (TEVA PHARMACEUTICAL INDUSTRIES, LTD., priority 2012, published 2014).

For data set [1], the system named is genes related to antigen presentation and corresponding inflammatory pathways. The conditions noted are these: mainly via the NFkB pathway.
The test system of a further data set is Th1 / Th2 T helper cells. The conditions noted are these: animal studies.
The conditions of data set [2]: in vivo.
In another data set the test system is Multiple Sclerosis. The conditions noted are these: two phase III trials.
Data set [3] concerns Huntington's disease patients. The conditions noted are these: 45 mg or 90 mg daily for 6 months.

As to `CCN(C(=O)c1c(O)c2c(Cl)cccc2n(C)c1=O)c1ccccc1` [laquinimod], the “expression of genes related to antigen presentation and inflammatory pathways” value in data set [1] is listed as “induced suppression”. Also, the “Th1 to Th2 shift” value with Th1 / Th2 T helper cells is “shift with an anti-inflammatory profile”. Further, the oral bioavailability entry in data set [2] is reported as “high oral bioavailability”. For the same compound, the “safety and tolerability profile” value in the data set with Multiple Sclerosis was “favorable safety and tolerability profile”.
`CCCN1CCC(c2cccc(S(C)(=O)=O)c2)CC1` [pridopidine, 4-[3-(methylsulfonyl)phenyl]-1-propyl-piperidine]: the “symptomatic relief incl. hand movements, gait and balance” value with patients with HD is reported as “significant symptomatic relief”. Further, the “tertiary endpoint UHDRS-TMS (changes in motor function) and individual mMS items (gait, dysarthria)” value in data set [3] is reported as “statistically significant effect of treatment”.
